ChEMBL document CHEMBL4814079, “Structure-Activity Relationship for the Picolinamide Antibacterials that Selectively Target Clostridioides difficile” (ACS Med Chem Lett, 2021)
≈ marks a conversion by molar mass, not a printed value.

Legend:
[1] = Selectivity index, ratio of MIC of […] Staphylococcus aureus ATCC 29213 to MIC of Clostridium difficile ATCC 43255; type: functional
Clostridioides difficile = assay: Antibacterial activity against Clostridium difficile ATCC 43255 assessed as reduction in bacterial growth measured after 48 hrs by CLSI based broth microdilution method; type: functional
Staphylococcus aureus = assay: Antibacterial activity against […] Staphylococcus aureus ATCC 29213 assessed as reduction in bacterial growth measured after 48 hrs by CLSI based broth microdilution method; type: functional
HeLa [2] = assay: Cytotoxicity against human HeLa cells assessed as reduction in cell viability incubated for 16 hrs by XTT assay; type: cell-based
Fusobacterium nucleatum = assay: Antibacterial activity against gut Fusobacterium nucleatum HM-992 assessed as reduction in bacterial growth measured after 48 hrs by CLSI based broth microdilution method; type: organism-based; settings: in vitro
Bacteroides fragilis = assay: Antibacterial activity against gut Bacteroides fragilis HM-709 assessed as reduction in bacterial growth measured after 48 hrs by CLSI based broth microdilution method; type: organism-based; settings: in vitro
Bifidobacterium longum = assay: Antibacterial activity against gut Bifidobacterium longum HM-846 assessed as reduction in bacterial growth measured after 48 hrs by CLSI based broth microdilution method; type: organism-based
Lactobacillus gasseri = assay: Antibacterial activity against gut Lactobacillus gasseri HM-664 assessed as reduction in bacterial growth measured after 48 hrs by CLSI based broth microdilution method; type: organism-based; settings: in vitro
[3] = Plasma concentration in CD1 mouse at 20 mg/kg, po measured upto 8 hrs by LC-MS/MS analysis; type: ADME, organism-based; settings: in vivo, BLD = below limit of detection
[4] = Ratio of drug excretion in CD-1 mouse feces to MIC for antibacterial activity against Clostridium difficile ATCC 43255; type: toxicity; settings: in vivo
Eubacterium sp. = assay: Antibacterial activity against gut Eubacterium sp. HM-178 assessed as reduction in bacterial growth measured after 48 hrs by CLSI based broth microdilution method; type: organism-based
Corynebacterium = assay: Antibacterial activity against gut Corynebacterium HM-784 assessed as reduction in bacterial growth measured after 48 hrs by CLSI based broth microdilution method; type: organism-based
Enterococcus faecium = assay: Antibacterial activity against Enterococcus faecium ATCC 19434 assessed as reduction in bacterial growth measured after 48 hrs by CLSI based broth microdilution method; type: functional
[5] = Antibacterial activity against gut Limosilactobacillus-reuteri HM-102 assessed as reduction in bacterial growth measured after 48 hrs by CLSI based broth microdilution method
[6] = Drug excretion in CD1 mouse feces at 20 mg/kg, po measured upto 8 hrs by LC-MS/MS analysis; type: ADME, organism-based; settings: in vivo
Veillonella = assay: Antibacterial activity against gut Veillonella sp HM-49 assessed as reduction in bacterial growth measured after 48 hrs by CLSI based broth microdilution method; type: organism-based; settings: in vitro
HeLa [7] = assay: Cytotoxicity against human HeLa cells assessed as reduction in cell viability at 64 ug/ml incubated for 16 hrs by XTT assay; type: cell-based; settings: dose 64 µg/ml
HeLa [8] = assay: Cytotoxicity against human HeLa cells assessed as reduction in cell viability at 128 ug/ml incubated for 16 hrs by XTT assay; type: cell-based; settings: dose 128 µg/ml
HeLa [9] = assay: Cytotoxicity against human HeLa cells assessed as reduction in cell viability at 256 ug/ml incubated for 16 hrs by XTT assay; type: cell-based; settings: dose 256 µg/ml

`O=C(Nc1ncco1)c1cc(-c2ccc(F)cc2)ccn1` gave a Ratio [1] of 64, an MIC (Clostridioides difficile) of 1 µg/mL (≈ 3.53 µM) and an MIC (Staphylococcus aureus) of 64 µg/mL (≈ 226 µM).
Compound `O=C(Nc1ncco1)c1cc(-c2ccc(OC(F)(F)F)cc2)ccn1` has a Ratio [1] of 512, an MIC (Clostridioides difficile) of 0.25 µg/mL (≈ 0.716 µM) and an MIC (Staphylococcus aureus) of 125 µg/mL (≈ 358 µM).
`O=C(Nc1ncco1)c1cc(Oc2ccc(OC(F)(F)F)cc2)ccn1` showed a Ratio [1] of 128, an MIC (Clostridioides difficile) of 1 µg/mL (≈ 2.74 µM) and an MIC (Staphylococcus aureus) of 128 µg/mL (≈ 350 µM).
`O=C(Nc1ncco1)c1cc(-c2ccc(C(F)(F)F)cc2)ccn1` gave a Ratio [1] of 512, an MIC (Clostridioides difficile) of 0.25 µg/mL (≈ 0.75 µM) and an MIC (Staphylococcus aureus) of 128 µg/mL (≈ 384 µM).
Work on `O=C(Nc1ncco1)c1ccnc(-c2ccc(Cl)c(Cl)c2)c1` yielded an IC50 (HeLa [2]) of 79.9 µM, an MIC (Fusobacterium nucleatum) of 8 µg/mL (≈ 23.9 µM) and an MIC (Bacteroides fragilis) of 1 µg/mL (≈ 2.99 µM). The MIC (Bifidobacterium longum) was greater than 16 µg/mL, the MIC (Lactobacillus gasseri) was greater than 16 µg/mL and the Cp [3] was “Bld”. For the same compound, the Ratio [4] was 11, the MIC (Eubacterium sp.) was greater than 16 µg/mL and the MIC (Clostridioides difficile) was 0.25 µg/mL (≈ 0.748 µM). The MIC (Corynebacterium) was 0.5 µg/mL (≈ 1.5 µM), the MIC (Enterococcus faecium) was 0.06 µg/mL (≈ 0.18 µM) and the MIC [5] was 8 µg/mL (≈ 23.9 µM). For the same compound, the Drug excretion [6] was 2.8 µg/g, the MIC (Veillonella) was 4 µg/mL (≈ 12 µM) and the MIC (Staphylococcus aureus) was 25 µg/mL (≈ 74.8 µM).
Compound `O=C(Nc1ncco1)c1cc(-c2cccc(C(F)(F)F)c2)ccn1` has a Ratio [1] of 128, an MIC (Clostridioides difficile) of 0.5 µg/mL (≈ 1.5 µM) and an MIC (Staphylococcus aureus) of 64 µg/mL (≈ 192 µM).
For `O=C(Nc1ncco1)c1cc(-c2cccc(F)c2)ccn1`, the Activity (HeLa [7]) was “Non-Toxic”, the Ratio [1] was 128 and the MIC (Clostridioides difficile) was 0.5 µg/mL (≈ 1.77 µM). The MIC (Staphylococcus aureus) was 64 µg/mL (≈ 226 µM).
With `CN[C@H](CC(C)C)C(=O)N[C@H]1C(=O)N[C@@H](CC(N)=O)C(=O)N[C@H]2C(=O)N[C@H]3C(=O)N[C@H](C(=O)N[C@H](C(=O)O)c4cc(O)cc(O)c4-c4cc3ccc4O)[C@H](O)c3ccc(c(Cl)c3)Oc3cc2cc(c3O[C@@H]2O[C@H](CO)[C@@H](O)[C@H](O)[C@H]2O[C@H]2C[C@](C)(N)[C@H](O)[C@H](C)O2)Oc2ccc(cc2Cl)[C@H]1O` [VANCOMYCIN] the MIC (Fusobacterium nucleatum) was 0.25 µg/mL (≈ 0.173 µM), the MIC (Bacteroides fragilis) was 16 µg/mL (≈ 11 µM) and the MIC (Bifidobacterium longum) was 0.25 µg/mL (≈ 0.173 µM). For the same compound, the MIC (Lactobacillus gasseri) was 1 µg/mL (≈ 0.69 µM), the MIC (Eubacterium sp.) was 2 µg/mL (≈ 1.38 µM) and the MIC [5] was greater than 32 µg/mL. For the same compound, the MIC (Veillonella) was greater than 32 µg/mL.
In the case of `O=C(Nc1ncco1)c1cc(-c2ccc(F)c(F)c2)ccn1`, the Activity (HeLa [7]) is reported as “Non-Toxic”, the Ratio [1] is reported as 256 and the MIC (Clostridioides difficile) is reported as 0.5 µg/mL (≈ 1.66 µM). For the same compound, the MIC (Staphylococcus aureus) was 128 µg/mL (≈ 425 µM).
In the case of `O=C([O-])c1ccc2oc(NC(=O)c3cc(Oc4ccc(F)c(F)c4)ccn3)nc2c1.[Na+]`, the Cp [3] is reported as “Bld”, the Activity (HeLa [8]) is reported as “Non-Toxic” and the Ratio [4] is reported as 7.4. The MIC (Clostridioides difficile) was 0.5 µg/mL, the Drug excretion [6] was 3.7 µg/g and the MIC (Staphylococcus aureus) was 64 µg/mL.
For `O=C(Nc1ncco1)c1cc(-c2ccc(Cl)cc2)ccn1`, the Ratio [1] was 32, the MIC (Clostridioides difficile) was 4 µg/mL (≈ 13.3 µM) and the MIC (Staphylococcus aureus) was 128 µg/mL (≈ 427 µM).
Work on `COc1ccc(Oc2ccnc(C(=O)Nc3ncco3)c2)cc1` yielded a Ratio [1] greater than 256, an MIC (Clostridioides difficile) of 1 µg/mL (≈ 3.21 µM) and an MIC (Staphylococcus aureus) of no less than 256 µg/mL.
With `O=C(Nc1ncco1)c1cc(-c2ccc(Cl)c(F)c2)ccn1` the Ratio [1] was 512, the MIC (Clostridioides difficile) was 0.25 µg/mL (≈ 0.787 µM) and the Activity (HeLa [9]) was “Non-Toxic”. The MIC (Staphylococcus aureus) was 128 µg/mL (≈ 403 µM).
`O=C(Nc1ncco1)c1cc(-c2cccc(OC(F)(F)F)c2)ccn1` showed a Ratio [1] greater than 512, an MIC (Clostridioides difficile) of 0.5 µg/mL (≈ 1.43 µM) and an MIC (Staphylococcus aureus) of no less than 256 µg/mL.
With `Cc1ncc([N+](=O)[O-])n1CCO` [METRONIDAZOLE] the MIC (Fusobacterium nucleatum) was 2 µg/mL (≈ 11.7 µM), the MIC (Bacteroides fragilis) was 1 µg/mL (≈ 5.84 µM) and the MIC (Bifidobacterium longum) was 1 µg/mL (≈ 5.84 µM). The MIC (Lactobacillus gasseri) was greater than 32 µg/mL, the MIC (Eubacterium sp.) was 1 µg/mL (≈ 5.84 µM) and the MIC (Corynebacterium) was greater than 32 µg/mL. For the same compound, the MIC [5] was greater than 32 µg/mL and the MIC (Veillonella) was 2 µg/mL (≈ 11.7 µM).
